Data on 27 compounds can be found in US10300071B2, “Compositions and methods for inhibition of mycobacteria” (priority 2014, dated 2019).

Assay [1] concerns Mtb strain mc^2-7000. Description: microbe, parasite or virus in culture. The settings on record: for MIC: 6 days incubation at 37° C., resazurin, read on the 7th day; for whole Mycobacterium tuberculosis cell inhibition: preliminary studies of commercially available herbicides. It is filed as cell-based, Mycobacterium tuberculosis.
Assay [2] has as its target Mtb AccD6 (Mycobacterium tuberculosis, UniProt P9WQH5). The experiment in a line: biochemical. The assay is classed as biochemical. The settings on record: for IC50: 300 μM malonyl-CoA, inhibitor 10 μM to 2000 μM; for inhibition at 20 µM: read-out: inhibition at 20 uM; for Mtb AccD6 inhibition: preliminary studies of commercially available herbicides.
The mark [3] stands for this setting: Mycobacterium tuberculosis, 144 h, read-out: MIC.

Values after ≈ are worked out from the molar mass of the structure shown. Where two headings read alike, the source gives them in different places.

Mtb AccD6, sequence (P9WQH5 whole entry, looked up): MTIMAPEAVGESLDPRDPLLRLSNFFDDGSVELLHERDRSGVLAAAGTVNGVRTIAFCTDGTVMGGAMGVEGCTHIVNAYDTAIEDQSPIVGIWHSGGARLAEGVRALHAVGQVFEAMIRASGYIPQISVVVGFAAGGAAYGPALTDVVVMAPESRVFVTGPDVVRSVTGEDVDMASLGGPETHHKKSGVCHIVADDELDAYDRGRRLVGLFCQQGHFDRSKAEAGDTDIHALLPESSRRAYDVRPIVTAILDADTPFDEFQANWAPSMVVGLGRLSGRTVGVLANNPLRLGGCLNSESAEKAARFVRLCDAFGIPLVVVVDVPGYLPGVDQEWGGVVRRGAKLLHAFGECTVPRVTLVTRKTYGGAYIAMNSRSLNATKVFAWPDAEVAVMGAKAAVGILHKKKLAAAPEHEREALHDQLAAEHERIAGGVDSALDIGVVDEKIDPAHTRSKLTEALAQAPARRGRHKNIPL

In the case of `O=C(COc1ccc(Oc2cnc3cc(Cl)ccc3n2)cc1)N1CCNCC1` [NZ-277, 2-{4-[(6-chloroquinoxalin-2-yl)oxy]phenoxy}-1-(piperazin-1-yl)ethan-1-one], in assay [1] (setting [3]), the MIC is 12.5 µM (≈ 4.99 µg/mL). Besides, the half-maximal inhibitory concentration (IC50) in assay [2] (read-out: IC50) was determined as 5.6 µM.

On to `CN1CCN(C(=O)COc2ccc(Oc3cnc4cc(Cl)ccc4n3)cc2)CC1` [NZ-278, 2-{4-[(6-chloroquinoxalin-2-yl)oxy]phenoxy}-1-(4-methylpiperazin-1-yl)ethan-1-one], for which the MIC in assay [1] (setting [3]) was 3.1 µM (≈ 1.28 µg/mL). For the same compound, the IC50 in assay [2] (read-out: IC50) worked out at 1.1 µM.

Turning to `CN(O)C(=O)COc1ccc(Oc2cnc3cc(Cl)ccc3n2)cc1` [NZ-279, 2-{4-[(6-chloroquinoxalin-2-yl)oxy]phenoxy}-N-hydroxy-N-methylacetamide], in assay [1] (setting [3]), the MIC is over 50 µM. Further, in assay [2] (read-out: IC50), the half-maximal inhibitory concentration (IC50) stood at 0.8 µM.

Consider `COC(=O)CCc1ccc(Oc2nc3ccc(Cl)cc3s2)cc1` [NZ-280, methyl 3-{4-[(6-chloro-1,3-benzothiazol-2-yl)oxy]phenyl}propanoate], for which the MIC in assay [1] (setting [3]) stood at 6 µM (≈ 2.09 µg/mL). The inhibition at 20 µM in assay [2] worked out at 50%.

With `COC(=O)/C=C/c1ccc(Oc2nc3ccc(Cl)cc3s2)cc1` [NZ-281, methyl (2E)-3-{4-[(6-chloro-1,3-benzothiazol-2-yl)oxy]phenyl}prop-2-enoate], the MIC in assay [1] (setting [3]) was determined as 50 µM (≈ 17.3 µg/mL). The inhibition at 20 µM in assay [2] was 30%.

Take `O=C(O)CCc1ccc(Oc2nc3ccc(Cl)cc3s2)cc1` [NZ-282, 3-{4-[(6-chloro-1,3-benzothiazol-2-yl)oxy]phenyl}propanoic acid]: the MIC result in assay [1] was “Not Active”. Besides, the inhibition at 20 µM in assay [2] turned out to be 40%.

For `O=C(O)/C=C/c1ccc(Oc2nc3ccc(Cl)cc3s2)cc1` [NZ-283, (2E)-3-{4-[(6-chloro-1,3-benzothiazol-2-yl)oxy]phenyl}prop-2-enoic acid], the MIC in assay [1] (setting [3]) was 12 µM (≈ 3.98 µg/mL). In addition, the inhibition at 20 µM in assay [2] was determined as 33%.

Consider `COC(=O)c1ccc(Oc2nc3ccc(Cl)cc3s2)cc1` [NZ-285, methyl 4-[(6-chloro-1,3-benzothiazol-2-yl)oxy]benzoate], for which the MIC in assay [1] (setting [3]) is 12 µM (≈ 3.84 µg/mL). Also, in assay [2], the half-inhibitory concentration (IC50) result is reported as “Not Active”.

As to `O=C(COc1ccc(Oc2cnc3cc(Cl)ccc3n2)cc1)NO` [NZ-286, 2-{4-[(6-chloroquinoxalin-2-yl)oxy]phenoxy}-N-hydroxyacetamide], the MIC in assay [1] (setting [3]) amounted to 3 µM (≈ 1.04 µg/mL). Besides, the IC50 in assay [2] (read-out: IC50) is 1.4 µM.

Regarding `O=C(O)c1ccc(Oc2nc3ccc(Cl)cc3s2)cc1` [NZ-288, 4-[(6-chloro-1,3-benzothiazol-2-yl)oxy]benzoic acid], the MIC in assay [1] (setting [3]) was found to be 25 µM (≈ 7.64 µg/mL). Besides, the IC50 in assay [2] (read-out: IC50) was 12 µM.

For the compound `Cc1cccc(Oc2nc3ccc(Cl)cc3s2)c1` [NZ-291, 6-chloro-2-(3-methylphenoxy)-1,3-benzothiazole], in assay [1] (setting [3]), the MIC worked out at 25 µM (≈ 6.89 µg/mL). The inhibition at 20 µM in assay [2] is 30%.

Consider `Clc1ccc2nc(Oc3ccccc3)sc2c1` [NZ-292, 6-chloro-2-phenoxy-1,3-benzothiazole], for which the MIC in assay [1] (setting [3]) worked out at 12 µM (≈ 3.14 µg/mL). Also, in assay [2], the inhibition at 20 µM was determined as 42%.

Take `COC(=O)Cc1ccc(Oc2nc3ccc(Cl)cc3o2)cc1` [NZ-302, methyl 2-{4-[(6-chloro-1,3-benzoxazol-2-yl)oxy]phenyl}acetate]: the MIC in assay [1] (setting [3]) was 3 µM. Also, the inhibition at 20 µM in assay [2] stood at 50%.

`CONC(=O)Nc1ccc(Oc2cnc3cc(Cl)ccc3n2)cc1` [NZ-344, 1-{4-[(6-chloroquinoxalin-2-yl)oxy]phenyl}-3-methoxyurea]: the MIC in assay [1] (setting [3]) came to 25 µM (≈ 8.62 µg/mL). Moreover, the 50% inhibitory concentration (IC50) in assay [2] (read-out: IC50) is 4.1 µM.

For `CC(C)NC(=O)Cc1ccc(Oc2nc3cc(F)c(F)cc3s2)cc1` [NZ-403, 2-{4-[(5,6-difluoro-1,3-benzothiazol-2-yl)oxy]phenyl}-N-(propan-2-yl)acetamide], the MIC in assay [1] (setting [3]) worked out at 1.24 µM (≈ 0.449 µg/mL). For the same compound, the half-inhibitory concentration (IC50) in assay [2] (read-out: IC50) is 0.16 µM.

`CC(C)NC(=O)Cn1ccc(Oc2nc3ccc(Cl)cc3s2)cc1=O` [NZ-404, 2-{4-[(6-chloro-1,3-benzothiazol-2-yl)oxy]-2-oxo-1,2-dihydropyridin-1-yl}-N-(propan-2-yl)acetamide]: in assay [1], the “% at 50 uM” value was found to be 38% at 50 uM. Besides, in assay [2] (read-out: IC50), the concentration for half-maximal inhibition (IC50) was 14.4 µM.

As to `CC(C)NC(=O)Cc1ccc(Oc2nc3ccc(F)cc3s2)cc1O` [NZ-405, 2-{4-[(6-fluoro-1,3-benzothiazol-2-yl)oxy]-2-hydroxyphenyl}-N-(propan-2-yl)acetamide], the MIC in assay [1] (setting [3]) stood at 17.5 µM (≈ 6.31 µg/mL). The IC50 in assay [2] (read-out: IC50) turned out to be 0.15 µM.

In the case of `CC(C)NC(=O)Cc1ccc(O)cc1Oc1nc2ccc(F)cc2s1` [NZ-406, 2-{2-[(6-fluoro-1,3-benzothiazol-2-yl)oxy]-4-hydroxyphenyl}-N-(propan-2-yl)acetamide], the “% at 50 uM” value in assay [1] was determined as 46% at 50 uM. The half-inhibitory concentration (IC50) result in assay [2] is on record as “Not Active”.

Consider `CC(C)NC(=O)Cc1ccc(Oc2nc3cc(F)c(F)cc3s2)cc1O` [NZ-407, 2-{4-[(5,6-difluoro-1,3-benzothiazol-2-yl)oxy]-2-hydroxyphenyl}-N-(propan-2-yl)acetamide], for which the MIC in assay [1] (setting [3]) was 11.7 µM (≈ 4.43 µg/mL). Also, in assay [2] (read-out: IC50), the half-maximal inhibitory concentration (IC50) stood at 0.11 µM.

Take `CNC(=O)C(C)c1ccc(Oc2nc3ccc(F)cc3s2)cc1O` (stereo not drawn) [NZ-408, 2-{4-[(6-fluoro-1,3-benzothiazol-2-yl)oxy]-2-hydroxyphenyl}-N-methylpropanamide]: the MIC in assay [1] (setting [3]) was found to be 6.5 µM (≈ 2.25 µg/mL). Also, the IC50 in assay [2] (read-out: IC50) was 0.21 µM.

Regarding `C=CCO/N=C(\CCC)C1=C(O)C(C(=O)OC)C(C)(C)CC1=O` (stereo not drawn) [alloxydim, reference compound], the “whole Mycobacterium tuberculosis cell inhibition” value in assay [1] is on record as “none exhibited whole Mycobacterium tuberculosis cell inhibition”. Moreover, the “Mtb AccD6 inhibition” value in assay [2] is “only haloxyfop exhibited Mtb AccD6 inhibition”.

In the case of `CCCC(=NOCC)C1=C(O)CC(C2CCCSC2)CC1=O` (stereo not drawn) [cycloxydim, reference compound], in assay [1], the “whole Mycobacterium tuberculosis cell inhibition” value is “none exhibited whole Mycobacterium tuberculosis cell inhibition”. In addition, the “Mtb AccD6 inhibition” value in assay [2] is recorded as “only haloxyfop exhibited Mtb AccD6 inhibition”.

For `CC(Oc1ccc(Oc2ccc(Cl)cc2Cl)cc1)C(=O)O` (stereo not drawn) [diclofop, reference compound], the “whole Mycobacterium tuberculosis cell inhibition” value in assay [1] was “none exhibited whole Mycobacterium tuberculosis cell inhibition”. Further, the “Mtb AccD6 inhibition” value in assay [2] is “only haloxyfop exhibited Mtb AccD6 inhibition”.

On to `CC(Oc1ccc(Oc2ccc(C(F)(F)F)cn2)cc1)C(=O)O` (stereo not drawn) [fluazifop, reference compound], for which the “whole Mycobacterium tuberculosis cell inhibition” value in assay [1] is recorded as “none exhibited whole Mycobacterium tuberculosis cell inhibition”. Further, the “Mtb AccD6 inhibition” value in assay [2] is listed as “only haloxyfop exhibited Mtb AccD6 inhibition”.

As for `CC(C)=NOCCOC(=O)C(C)Oc1ccc(Oc2cnc3cc(Cl)ccc3n2)cc1` (stereo not drawn) [propaquizafop, 2-{[(propan-2-ylidene)amino]oxy}ethyl 2-{4-[(6-chloroquinoxalin-2-yl)oxy]phenoxy}propanoate, reference compound], the MIC in assay [1] (setting [3]) came to 1.56 µM (≈ 0.692 µg/mL). For the same compound, the 50% inhibitory concentration (IC50) in assay [2] (read-out: IC50) was 2.1 µM.

As to `CCC/C(=N\OCC)C1=C(O)CC(CC(C)SCC)CC1=O` (stereo not drawn) [sethoxydim, reference compound], the “whole Mycobacterium tuberculosis cell inhibition” value in assay [1] is listed as “none exhibited whole Mycobacterium tuberculosis cell inhibition”. The “Mtb AccD6 inhibition” value in assay [2] is listed as “only haloxyfop exhibited Mtb AccD6 inhibition”.

In the case of cyhalofop [reference compound], the “whole Mycobacterium tuberculosis cell inhibition” value in assay [1] is “none exhibited whole Mycobacterium tuberculosis cell inhibition”. Also, the “Mtb AccD6 inhibition” value in assay [2] is given as “only haloxyfop exhibited Mtb AccD6 inhibition”.
